ChEMBL document CHEMBL1148849, “Synthesis and structure evaluation of a novel cantharimide and its cytotoxicity on SK-Hep-1 hepatoma cells” (2007)
Calls of active or inactive are those of the source. The rule behind the calls is not given here.

What was measured:
SK-HEP1 [1] = assay: Effect on apoptosis in human SK-HEP-1 cells at 25 ug/mL after 48 hrs by TUNEL method; assay type: functional, cell-based
SK-HEP1 [2] = assay: Cytotoxicity against human SK-HEP-1 cells assessed as inducing loss of colony formation by MTS assay; assay type: functional, cell-based
SK-HEP1 [3] = assay: Cytotoxicity against human SK-HEP-1 cells assessed as 50 percent MTS reduction after 48 hrs; assay type: functional
SK-HEP1 [4] = assay: Cytotoxicity against human SK-HEP-1 cells assessed as inducing cell shrinkage after 48 hrs by MTS assay; assay type: functional, cell-based
SK-HEP1 [5] = assay: Effect on apoptosis in human SK-HEP-1 cells assessed as increase in caspase 3 activation at 25 ug/mL after 48 hrs; assay type: functional, cell-based
LNCaP = assay: Apoptotic effect on LNCap cells assessed as induction of shrinkage at 25 ug/mL after 48 hrs; assay type: functional, cell-based; settings: Homo sapiens
MCF7 = assay: Apoptotic effect on MCF7 cells assessed as induction of shrinkage at 25 ug/mL after 48 hrs; assay type: functional, cell-based; settings: Homo sapiens

Row | SMILES | Activity (SK-HEP1 [1]) | Activity (SK-HEP1 [2]) | Activity (SK-HEP1 [3]) [µg/mL] | Activity (SK-HEP1 [4]) | Activity (SK-HEP1 [5]) | Activity (LNCaP) | Activity (MCF7)
1 | Cc1ccc2nc(N3C(=O)[C@@]4(C)[C@H]5CC[C@H](O5)[C@@]4(C)C3=O)sc2c1 | Active | Active | 12.5 | Active | Active | – | –
2 | COc1ccc2nc(N3C(=O)[C@@]4(C)[C@H]5CC[C@H](O5)[C@@]4(C)C3=O)sc2c1 | Active | Active | 6.25 | Active | Active | Active | Active
